For one assay, the target named is T1, VEGF-R2 kinase domain (Rattus norvegicus, UniProt O08775).
T1 construct: polyhistidine (N)
As to the kind of experiment: VEGF-R2 screening assay (33P-ATP FlashPlate kinase assay). The settings on record: for pIC50: 10 μM ATP; for inhibition at 100 µM: single test concentration 100 μM. Format: biochemical. How it is done: (§1) 70 μL of the kinase reaction mixture was dispensed into the well of a streptavidin coated FlashPlate™ (Cat. # SMP103, NEN, Boston, Mass.).
(§2) Test compound stock in 100% DMSO (1 μL) was added to the wells resulting in a final concentration of 1% DMSO in the reaction with a 100 μL final reaction volume. Each enzyme was diluted in 50 mM Tris-HCl pH=8.0, 0.1% BSA and 30 μL was added to each well to initiate the reaction. The reaction was incubated for one hour at 30° C. At the end of the 1 hr incubation, the reaction was terminated by aspirating the mixture from the plate and washing the wells twice with PBS containing 100 mM EDTA. The biotinylated peptide substrate became immobilized on the Flashplate™ and the incorporation of ^33P-γ-ATP was measured by reading the plate on a scintillation counter. Inhibition of the enzymatic activity was measured by observing a reduced amount of ^33P-γ-ATP incorporated into the immobilized peptide.
The assay used 150 ng of the N-terminal biotinylated peptide biotin-[…]-amide (VEGF-R2) per well.
(§3) A maximum and minimum signal for the assay was determined on each plate. The percent inhibition of a test compound was calculated according to the formula: [formula]

In another assay the target is T2, Aurora-A (Mus musculus, UniProt P97477).
T2 construct: followed by the full length protein encoding the murine Aurora-A; polyhistidine (N); made in house; host or cells: Sf9 insect cells
T2 sequence (P97477 1-395): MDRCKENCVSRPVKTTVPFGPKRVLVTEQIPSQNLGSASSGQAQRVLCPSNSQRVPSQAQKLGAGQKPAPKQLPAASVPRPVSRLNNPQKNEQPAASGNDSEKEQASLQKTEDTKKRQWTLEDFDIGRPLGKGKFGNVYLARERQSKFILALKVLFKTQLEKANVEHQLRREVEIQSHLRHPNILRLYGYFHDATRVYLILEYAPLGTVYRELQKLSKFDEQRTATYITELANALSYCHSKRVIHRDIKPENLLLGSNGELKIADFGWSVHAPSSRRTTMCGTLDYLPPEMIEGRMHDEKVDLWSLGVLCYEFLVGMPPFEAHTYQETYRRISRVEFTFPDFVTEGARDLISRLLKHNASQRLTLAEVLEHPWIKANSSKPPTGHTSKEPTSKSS
As to the kind of experiment: Aurora-A screening assay (33P-ATP FlashPlate kinase assay). Format: biochemical, murine. The settings on record: for pIC50: 10 μM ATP; for inhibition at 100 µM: single test concentration 100 μM. How it is done: as §1, §2
Aurora-A is a fusion protein containing a polyhistidine tag at the N terminus followed by the full length protein encoding the murine Aurora-A (Accession number GB BC014711) expressed and purified from sf9 insect cells. The assay used 400 ng of the N-terminal biotinylated peptide biotin-[…]-amide (Aurora-A) per well.
as §3

The subject of assay [1] is HeLa cervical adenocarcinoma. As to the kind of experiment: Cell proliferation inhibition assay (14C-thymidine incorporation), HeLa. The settings on record: Homo sapiens. Format: cell-based. From the text:
(§4) The ability of a test compound to inhibit unregulated cell proliferation may be determined by measuring incorporation of ^14C-labelled thymidine into newly synthesized DNA within cell lines derived from carcinomas originating from several tissues. Accordingly, the effect of a test compound on proliferation of cells with a variety of phenotypes may be determined.
(§5) Carcinoma cell lines used include the HeLa cervical adenocarcinoma from the American Type Culture Collection (ATCC Cat. #CCL2), A375 malignant melanoma (ATCC Cat. #CRL-1619) and HCT-116 colon carcinoma (ATCC Cat. #CCL-247).
(§6) The carcinoma cells are trypsinized and counted. The cells (3000-8000 count) are added to each well of a 96-well CytoStar tissue culture treated scintillating microplate (Amersham #RPNQO160) in complete medium (100 μL) and the plate is then incubated in complete medium for 24 hrs at 37° C. in an inert atmosphere containing 5% CO2.
(§7) Test compound (1 μL) in 100% DMSO is added to the plate test-wells with DMSO only added to control-wells. The plate is incubated in complete medium for a second 24 hr period at 37° C. in an atmosphere containing 5% CO2.
(§8) An aliquot of a solution of Methyl ^14C-thymidine (56 mC/mmol) (NEN #NEC568 or Amersham #CFA532) and complete medium (20 uL to provide 0.2 μCi/well) is then added to each well and the plate is incubated for a third 24 hr period at 37° C. in an atmosphere containing 5% CO2.
(§9) The plate contents are then discarded, the plate is washed twice with PBS (200 μL) and then PBS (200 μL) is added to each well. The plate is sealed and the degree of methyl ^14C-thymidine incorporation is quantified on a Packard Top Count.
(§10) For a series of test concentrations, the IC50 was derived by graphing percent inhibition against the log of the concentrations tested for a given compound with results shown in Table 2.

The next assay relates to A375 malignant melanoma. As to the kind of experiment: Cell proliferation inhibition assay (14C-thymidine incorporation), A375. The settings on record: Homo sapiens, A-375. Type of assay: cell-based.
From the text: as §4, §5, §6, §7, §8, §9, §10
(Uptake of a labelled nucleoside into DNA is a usual measure of proliferation.)

For the next assay, the system named is HCT-116 colon carcinoma. As to the kind of experiment: Cell proliferation inhibition assay (14C-thymidine incorporation), HCT116. Type of assay: cell-based. The settings on record: Homo sapiens.
From the text: as §4, §5, §6, §7, §8, §9, §10

Setting [2] is: read-out: VEGF-R2 percent inhibition.
[3] abbreviates: read-out: Aurora-A percent inhibition.

This note sets out measurements from patent US20070161648A1, “Substituted dihydro-isoindolones useful in treating kinase disorders” (priority 2005, published 2007).

pIC50: −log10 of the molar value.

A word on the pIC50: it is the IC50 on a negative log10 scale, so that one unit is a factor of ten. A word on the inhibition: it is the relative decrease from the control value, in per cent.

T1 sequence (O08775 786-1343): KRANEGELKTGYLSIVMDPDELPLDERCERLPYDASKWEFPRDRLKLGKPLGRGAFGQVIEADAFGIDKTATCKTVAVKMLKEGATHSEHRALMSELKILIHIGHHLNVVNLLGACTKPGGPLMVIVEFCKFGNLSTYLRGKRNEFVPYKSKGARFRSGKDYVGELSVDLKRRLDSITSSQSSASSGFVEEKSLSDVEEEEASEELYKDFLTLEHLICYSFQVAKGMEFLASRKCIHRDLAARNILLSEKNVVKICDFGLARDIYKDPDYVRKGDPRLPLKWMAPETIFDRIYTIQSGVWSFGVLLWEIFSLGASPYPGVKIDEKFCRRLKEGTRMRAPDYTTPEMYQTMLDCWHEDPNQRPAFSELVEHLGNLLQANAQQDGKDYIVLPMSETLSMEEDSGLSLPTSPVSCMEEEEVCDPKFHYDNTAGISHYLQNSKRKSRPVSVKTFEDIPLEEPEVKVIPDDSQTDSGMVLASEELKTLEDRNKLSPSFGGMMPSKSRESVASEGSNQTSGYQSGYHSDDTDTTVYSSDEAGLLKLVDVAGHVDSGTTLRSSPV

As to `O=C1NCc2cccc(-c3ccc[nH]3)c21` [Cpd 12, 7-(1H-pyrrol-2-yl)-2,3-dihydro-isoindol-1-one], the negative logarithm of the IC50 (pIC50) is 5.96 on VEGF-R2 kinase domain; 6.47 on Aurora-A; 4.28 in assay [1]; under 5.00 in the assay with A375 malignant melanoma; under 4.00 in the assay with HCT-116 colon carcinoma.
As for `CC(C)(C)OC(=O)n1c(-c2cccc3c2C(=O)NC3)cc2cc(O)ccc21` [Cpd 28, 5-hydroxy-2-(3-oxo-2,3-dihydro-1H-isoindol-4-yl)-indole-1-carboxylic acid tert-butyl ester], at VEGF-R2 kinase domain (setting [2]), the inhibition at 100 µM was 62%. Besides, the negative-log IC50 (pIC50) on Aurora-A is 5.03; in assay [1], 4.46; in the assay with A375 malignant melanoma it was 4.46; in the assay on HCT-116 colon carcinoma it was under 5.00.
In the case of `CC(C)(C)OC(=O)n1c(-c2cccc3c2C(=O)NC3)cc2ccccc21` [Cpd 26, 2-(3-oxo-2,3-dihydro-1H-isoindol-4-yl)-indole-1-carboxylic acid tert-butyl ester], the inhibition at 100 µM stood at 34% on VEGF-R2 kinase domain (setting [2]) and 61% at Aurora-A (setting [3]).
Consider `O=C1NCc2cccc(-c3cc4cc(OCc5ccccc5)ccc4[nH]3)c21` [Cpd 19, 7-(5-benzyloxy-1H-indol-2-yl)-2,3-dihydro-isoindol-1-one], for which the negative-log IC50 (pIC50) against VEGF-R2 kinase domain was 4.95; against Aurora-A, 4.67.
With `COc1ccc2[nH]c(-c3ccc([N+](=O)[O-])c4c3C(=O)NC4)cc2c1` [Cpd 16, 7-(5-methoxy-1H-indol-2-yl)-4-nitro-2,3-dihydro-isoindol-1-one], the pIC50 on VEGF-R2 kinase domain is 7.64; in assay [1], 5.03; in the assay on A375 malignant melanoma, 5.28; in the assay with HCT-116 colon carcinoma it was 5.51. The inhibition at 10 µM at Aurora-A (single test concentration 10 μM, read-out: Aurora-A percent inhibition) was 52%.
As to `O=C1NCc2cccc(-c3cc4cc(OCCCN5CCCCC5)ccc4[nH]3)c21` [Cpd 9, 7-[5-(3-piperidin-1-yl-propoxy)-1H-indol-2-yl]-2,3-dihydro-isoindol-1-one], the pIC50 at VEGF-R2 kinase domain was 7.19; at Aurora-A, 6.75; in assay [1], 5.22; in the assay with A375 malignant melanoma, 5.39; in the assay with HCT-116 colon carcinoma, 5.11.
As for `CC(C)(C)OC(=O)n1cccc1-c1cccc2c1C(=O)NC2` [Cpd 23, 2-(3-oxo-2,3-dihydro-1H-isoindol-4-yl)-pyrrole-1-carboxylic acid tert-butyl ester], the results for the inhibition at 100 µM at VEGF-R2 kinase domain (setting [2]) and at Aurora-A (setting [3]) were 46% and 25%, respectively.
As to `O=C1NCc2cccc(-c3cc4cc(OCCCO)ccc4[nH]3)c21` [Cpd 5, 7-[5-(3-hydroxy-propoxy)-1H-indol-2-yl]-2,3-dihydro-isoindol-1-one], the negative logarithm of the IC50 (pIC50) against VEGF-R2 kinase domain was 7.52; against Aurora-A it was 7.00; in assay [1], 4.82; in the assay with A375 malignant melanoma, 5.36; in the assay with HCT-116 colon carcinoma, 5.19.
Consider `COc1ccc2[nH]c(-c3ccc(N)c4c3C(=O)NC4)cc2c1` [Cpd 17, 4-amino-7-(5-methoxy-1H-indol-2-yl)-2,3-dihydro-isoindol-1-one], for which the results for the negative logarithm of the IC50 (pIC50) against VEGF-R2 kinase domain and against Aurora-A were 7.27 and 6.36, respectively.
As for `O=C1NCc2cccc(-c3c[nH]c4ccccc34)c21` [Cpd 20, 7-(1H-Indol-3-yl)-2,3-dihydro-isoindol-1-one], the inhibition at 100 µM came out at 50% at VEGF-R2 kinase domain (setting [2]) and 60% at Aurora-A (setting [3]).
Turning to `O=C1NCc2cccc(-c3cc4cc(OCCN5CCCCC5)ccc4[nH]3)c21` [Cpd 10, 7-[5-(2-piperidin-1-yl-ethoxy)-1H-indol-2-yl]-2,3-dihydro-isoindol-1-one], the pIC50 was 7.25 on VEGF-R2 kinase domain; 6.70 against Aurora-A; 5.33 in assay [1]; 6.36 in the assay on A375 malignant melanoma; 5.63 in the assay on HCT-116 colon carcinoma.
For the compound `O=C1NCc2cccc(-c3cc4cc(OCCN5CCOCC5)ccc4[nH]3)c21` [Cpd 8, 7-[5-(2-morpholin-4-yl-ethoxy)-1H-indol-2-yl]-2,3-dihydro-isoindol-1-one], the negative-log IC50 (pIC50) against VEGF-R2 kinase domain is 7.13; against Aurora-A it was 6.87; in assay [1], 5.24; with A375 malignant melanoma, 5.57; with HCT-116 colon carcinoma, 5.24.
For `COc1ccc2[nH]c(-c3cccc4c3C(=O)NC4)nc2c1` [Cpd 11, 7-(5-methoxy-1H-benzoimidazol-2-yl)-2,3-dihydro-isoindol-1-one], the negative-log IC50 (pIC50) is 6.85 at VEGF-R2 kinase domain; 6.69 against Aurora-A; under 5.00 in assay [1]; under 5.00 with A375 malignant melanoma; under 5.00 in the assay with HCT-116 colon carcinoma.
Regarding `O=C1NCc2cccc(-c3cc4ccccc4[nH]3)c21` [Cpd 7, 7-(1H-indol-2-yl)-2,3-dihydro-isoindol-1-one], the pIC50 against VEGF-R2 kinase domain is 6.84; at Aurora-A, 7.00; in assay [1], 5.43; in the assay with A375 malignant melanoma it was 5.25; in the assay on HCT-116 colon carcinoma it was 5.30.
For `CC(C)(C)OC(=O)n1c(-c2cccc3c2C(=O)NC3)cc2cc(OCCN3CCCCC3)ccc21` [Cpd 29, 2-(3-oxo-2,3-dihydro-1H-isoindol-4-yl)-5-(2-piperidin-1-yl-ethoxy)-indole-1-carboxylic acid tert-butyl ester], the values for the inhibition at 100 µM at VEGF-R2 kinase domain (setting [2]) and at Aurora-A (setting [3]) were 63% and 58%, respectively. The values for the pIC50 (in assay [1]; with A375 malignant melanoma; in the assay with HCT-116 colon carcinoma) were 4.84, 5.38 and under 6.00, respectively.
Turning to `CN1Cc2cccc(-c3ccc[nH]3)c2C1=O` [Cpd 25, 2-methyl-7-(1H-pyrrol-2-yl)-2,3-dihydro-isoindol-1-one], the inhibition at 100 µM on VEGF-R2 kinase domain (setting [2]) came to 37%. Besides, at Aurora-A, the pIC50 is under 4.00.
For `COc1ccc2c(c1)cc(-c1ccc([N+](=O)[O-])c3c1C(=O)NC3)n2C(=O)OC(C)(C)C` [Cpd 15, 5-methoxy-2-(7-nitro-3-oxo-2,3-dihydro-1H-isoindol-4-yl)-indole-1-carboxylic acid tert-butyl ester], the pIC50 against VEGF-R2 kinase domain is 5.82; against Aurora-A it was 6.57.
In the case of `COc1cc2c(c(-c3cc4cc(OC)ccc4n3C(=O)OC(C)(C)C)c1)C(=O)NC2` [Cpd 31, 5-Methoxy-2-(6-methoxy-3-oxo-2,3-dihydro-1H-isoindol-4-yl)-indole-1-carboxylic acid tert-butyl ester], the inhibition at 100 µM at VEGF-R2 kinase domain (setting [2]) came out at 17%; on Aurora-A (setting [3]), 40%. Besides, the pIC50 is 4.35 in assay [1], 4.40 with A375 malignant melanoma and 4.40 with HCT-116 colon carcinoma.
In the case of `COc1ccc2[nH]c(-c3cccc4c3C(=O)NC4=O)cc2c1` [Cpd 22, 4-(5-methoxy-1H-indol-2-yl)-isoindole-1,3-dione], the inhibition at 0.1 µM on VEGF-R2 kinase domain (single test concentration 0.1 μM, read-out: VEGF-R2 percent inhibition) came out at 35%; on Aurora-A (single test concentration 0.1 μM, read-out: Aurora-A percent inhibition), 30%.
Take `COc1ccc2[nH]c(-c3ccc(NC(C)=O)c4c3C(=O)NC4)cc2c1` [Cpd 18, N-[7-(5-methoxy-1H-indol-2-yl)-1-oxo-2,3-dihydro-1H-isoindol-4-yl]-acetamide]: the negative-log IC50 (pIC50) at VEGF-R2 kinase domain is under 4.00. Moreover, the inhibition at 100 µM on Aurora-A (setting [3]) is 64%.
